Measurements published in patent US20200237852A1, “Small Molecule Enhancers of Paneth Cell Function and Differentiation” (Massachusetts Institute of Technology, priority 2019, published 2020).

Assays:
[1] = tested on: 6-day ENR+CD cells; test: Cell pellet ATP after long-term (48-hour) treatment; format: cell-based, murine; settings: low doses
Text: (§1) We next sought to profile potential long-term modulators of differentiated PC survival and antimicrobial secretion, as well as gauge the interaction between long-term modulators and short-term induced secretion (via CCh). To accomplish this, we employed a similar set up as in the short-term experiment, with the exception that upon plating day 4 ENR+CD cells we additionally supplemented in either MDP, LPS, TNF-α, or IFN-γ for the additional 2 days in culture and assayed all conditions for both basal and CCh-induced LYZ secretion over 3 hours on day 6 of differentiation (FIG. 3A). […] Additionally, we see that the long-term addition reduces CCh-induced secretory function relative to the untreated control for all agents (FIG. 3D).
Small intestinal crypts were isolated from C57BL/6 mice of both sexes, aged between three to six months in all experiments. Crypts were then cultured in a Matrigel culture system. Briefly, crypts were resuspended in basal culture medium (Advanced DMEM/F12 with 2 mM GlutaMAX and 10 mM HEPES; Thermo Fisher Scientific) at a 1:1 ratio with Corning™ Matrigel™ Membrane Matrix—GFR (Fisher Scientific) and plated at the center of each well of 24-well plates. Following Matrigel polymerization, 500 μL of small intestinal crypt culture medium (basal media plus 100× N2 supplement, 50×B27 supplement; Life Technologies, 500× N-acetyl-L-cysteine; Sigma-Aldrich) supplemented with growth factors EGF—E (50 ng/mL, Life Technologies), Noggin—N (100 ng/mL, PeproTech) and R-spondin 1—R (500 ng/mL, PeproTech) and small molecules CHIR99021—C (3 μM, LC Laboratories) and valproic acid—V (1 mM, Sigma-Aldrich) was added to each well. ROCK inhibitor Y-27632—Y (10 μM, R&D Systems) was added for the first 2 days of culture. Cells were cultured at 37° C. with 5% CO2, and cell culture medium was changed every other day. After 6 days of culture, crypt organoids were isolated from Matrigel by mechanical dissociation. To expand enriched ISCs (ENR+CV/Y) or Paneth Cells (ENR+CD), organoids were cultured in 24-well plates, suspended in 40 uL 3-D gels (50-50 GFR MATRIGEL®, Basal culture media), with 500 uL of crypt media supplemented with necessary growth factors and small molecules. […]
For 96-well plate high-throughput screening, 4-day differentiated (ENR+CD) cell clusters in 3D Matrigel were transferred to a “2.5-D” 96-well plate culture system. […] On the last repeat, pellet was resuspended in basal culture medium, the number of cell clusters counted, and centrifuged at 300 g for 3 min at 4° C. […] At end time points (following 2 days in culture and 3 hours of stimulation), lysozyme secretion and cell viability were assessed using Lysozyme Assay Kit and CellTiter-Glo 3D Cell Viability Assay (Promega), respectively, according to the manufacturers' protocols. […]

[2] = tested on: 6-day ENR+CD cells; test: Long-term (48-hour) modulators of basal and CCh-induced LYZ secretion; format: cell-based, murine; settings: 48-hour treatment
Text: as §1
Small intestinal crypts were isolated from C57BL/6 mice of both sexes, aged between three to six months in all experiments. Crypts were then cultured in a Matrigel culture system. Briefly, crypts were resuspended in basal culture medium (Advanced DMEM/F12 with 2 mM GlutaMAX and 10 mM HEPES; Thermo Fisher Scientific) at a 1:1 ratio with Corning™ Matrigel™ Membrane Matrix—GFR (Fisher Scientific) and plated at the center of each well of 24-well plates. Following Matrigel polymerization, 500 μL of small intestinal crypt culture medium (basal media plus 100× N2 supplement, 50×B27 supplement; Life Technologies, 500× N-acetyl-L-cysteine; Sigma-Aldrich) supplemented with growth factors EGF—E (50 ng/mL, Life Technologies), Noggin—N (100 ng/mL, PeproTech) and R-spondin 1—R (500 ng/mL, PeproTech) and small molecules CHIR99021—C (3 μM, LC Laboratories) and valproic acid—V (1 mM, Sigma-Aldrich) was added to each well. ROCK inhibitor Y-27632—Y (10 μM, R&D Systems) was added for the first 2 days of culture. Cells were cultured at 37° C. with 5% CO2, and cell culture medium was changed every other day. After 6 days of culture, crypt organoids were isolated from Matrigel by mechanical dissociation. To expand enriched ISCs (ENR+CV/Y) or Paneth Cells (ENR+CD), organoids were cultured in 24-well plates, suspended in 40 uL 3-D gels (50-50 GFR MATRIGEL®, Basal culture media), with 500 uL of crypt media supplemented with necessary growth factors and small molecules. ROCK inhibitor (Y) was added for the first two days of ISC culture following reconstitution from cryopreservation or trypLE passaging to single cells. Cell culture medium was changed every other day. After 4 days of culture in ENR+CV, cell clusters were differentiated to PCs under the ENR+CD condition for 96-well short and long-term screens. For 384-well differentiation screens, 4-day ENR+CV clusters were passaged to single cells using trypLE, replated and expanded another 3 days in 3-D ENR+CVY and then passaged directly into screens.
For 96-well plate high-throughput screening, 4-day differentiated (ENR+CD) cell clusters in 3D Matrigel were transferred to a “2.5-D” 96-well plate culture system. Briefly, cell culture gel and medium were homogenized via mechanical disruption and centrifuged at 300 g for 3 min at 4° C. […] On the last repeat, pellet was resuspended in basal culture medium, the number of cell clusters counted, and centrifuged at 300 g for 3 min at 4° C. […] At end time points (following 2 days in culture and 3 hours of stimulation), lysozyme secretion and cell viability were assessed using Lysozyme Assay Kit and CellTiter-Glo 3D Cell Viability Assay (Promega), respectively, according to the manufacturers' protocols. […]

[3] = tested on: 6-day ENR+CD cells; test: Short-term (3-hour) stimulation of LYZ secretion, 2.5-D 96-well platform; format: cell-based, murine
Text: We first sought to profile the potential short-term actors, IFN-γ, LPS, and CCh, and see if with the added resolution of this first-of-its-kind PC platform, we might be able to determine high-resolution EC50's. To generate sufficient cells for plating out all necessary conditions we first expanded and enriched ISCs in traditional 3-D culture and subsequently differentiated for 4 days towards PCs (ENR+CD). Next, we passaged and plated these cells into 96-well plates as 2.5-D and continued differentiating for an additional 2 days in ENR+CD. On day 6 of differentiation, each well was then washed with basal media repeatedly and stimulated with its respective agent, with a measurement of supernatant LYZ paired to cell pellet ATP (FIG. 2A). This screen was repeated on three separate occasions with cells from three distinct murine donors and analyzed combined. We first wanted to determine the approximate standardized effect size of each treatment at each dose, which was accomplished through the replicate-based strictly standardized mean difference (SSMD), an effect size measure based on the statistics of contrast variables, and particularly useful in screening applications as it is a measure which takes into account both mean difference and variance in a single measure. […] In total, we see that our 2.5-D platform does provide a reasonable system for assessing and screening for potential short-term modulators of PC antimicrobial secretion.
Small intestinal crypts were isolated from C57BL/6 mice of both sexes, aged between three to six months in all experiments. Crypts were then cultured in a Matrigel culture system. Briefly, crypts were resuspended in basal culture medium (Advanced DMEM/F12 with 2 mM GlutaMAX and 10 mM HEPES; Thermo Fisher Scientific) at a 1:1 ratio with Corning™ Matrigel™ Membrane Matrix—GFR (Fisher Scientific) and plated at the center of each well of 24-well plates. […]

[4] = tested on: 6-day ENR+CD cells; test: Cell pellet ATP after short-term (3-hour) stimulation, 2.5-D 96-well platform; format: cell-based, murine; settings: CCh: adj. p<0.01 for 10 and 100 μM doses
Text: We first sought to profile the potential short-term actors, IFN-γ, LPS, and CCh, and see if with the added resolution of this first-of-its-kind PC platform, we might be able to determine high-resolution EC50's. To generate sufficient cells for plating out all necessary conditions we first expanded and enriched ISCs in traditional 3-D culture and subsequently differentiated for 4 days towards PCs (ENR+CD). Next, we passaged and plated these cells into 96-well plates as 2.5-D and continued differentiating for an additional 2 days in ENR+CD. On day 6 of differentiation, each well was then washed with basal media repeatedly and stimulated with its respective agent, with a measurement of supernatant LYZ paired to cell pellet ATP (FIG. 2A). This screen was repeated on three separate occasions with cells from three distinct murine donors and analyzed combined. We first wanted to determine the approximate standardized effect size of each treatment at each dose, which was accomplished through the replicate-based strictly standardized mean difference (SSMD), an effect size measure based on the statistics of contrast variables, and particularly useful in screening applications as it is a measure which takes into account both mean difference and variance in a single measure. […]

[5] = tested on: ENR+CD organoids; test: Flow cytometry analysis, 3D culture, XPO1 inhibitors; format: cell-based, C57BL/6 mice; settings: 6-day ENR+CD organoids
Procedure: ISC-enriched organoids cultured in 3D Matrigel with ENRCV media were passaged to 24-well plate in 3D Matrigel with ENRCV. At day zero, media were replaced to ENRCD with or without indicated compounds, and media were replaced every other day. At day six, cells were washed with basal media, and then harvested from Matrigel by mechanical disruption in TrypLE Express (ThermoFisher, 12605010) to remove Matrigel and dissociate organoids to single cells. After vigorous pipetting and incubation at 37° C. for 20 min, dissociated organoids were strained through a 35 μm cell strainer into a tube (Falcon, 352235). The cell filtrate was centrifuged again at 300×g for 3 min at 4° C. to pellet the cells. Cell pellets were resuspended in FACS buffer (2% FBS in PBS), and then transferred to an ultra low-bind 96-well plate (Corning, 7007). Cells were stained with Zombie-violet viability dye (BioLegend, 423107) at 100× for viability staining and/or antibody staining solution. FITC-conjugated antibody for lysozyme (Dako, […]) and APC-conjugated antibody for CD24 (BioLegend, 138505) were used at 100× dilution. Flow cytometry was performed using an LSR Fortessa (BD; Koch Institute Flow Cytometry Core at MIT). The data were analyzed using FlowJo v10 software.

[6] = tested on: organoids differentiated under ENR+CV, ENR+CD, or ENR; test: Western blotting for LYZ in organoids; format: cell-based, C57BL/6 mice; settings: six days in ENR+CV
Text: ISC-enriched organoids cultured in 3D Matrigel with ENRCV media were passaged to 24-well plate in 3D Matrigel with ENRCV. At day zero, media were replaced to ENR or ENRCD with or without indicated compounds, and media were replaced every other day. At day six, cells were harvested from Matrigel by mechanical disruption and suspended in basal media. Cell pellets were lysed with Pierce® IP lysis buffer (ThermoFisher, 87787) containing Halt™ Protease Inhibitor Cocktail, EDTA-Free (ThermoFisher, 87785) after 3-minute centrifuge at 300×g at 4° C. Cell extracts were resolved by NuPAGE® SDS-PAGE Gel system (ThermoFisher) and electroblotted onto polyvinylidene difluoride membranes using Criterion™ Blotter (Biorad). The membranes were blocked with 2% Blotting-Grade Blocker (Biorad, 1706404) in TBS-T (50 mM Tris-HCl, 150 mM NaCl, and 0.1% Tween 20, pH 8.0) and then probed with appropriate antibodies. Detection was performed using ECL Select™ Western Blotting Detection Reagent (Amersham, 45-000-999) and ImageQuant LAS4000 (GE Healthcare).

With `CC(=O)N[C@H]1C(O)O[C@H](CO)[C@@H](O)[C@@H]1O[C@H](C)C(=O)N[C@@H](C)C(=O)N[C@H](CCC(=O)O)C(N)=O` (mixture of isomers) [MDP, muramyl dipeptide] the “SSMD effect size of increase in cell number (ATP)” value [1] was “fairly moderate”, the “change in cell number (ATP rel. to ENR+CD)” value [1] was “apparent increases in cell number” and the “effect size of reduction of CCh-induced secretory function relative to untreated control” value ([2]; CCh-induced secretion over 3 hours on day 6) was “fairly moderate”. For the same compound, the “change in basal LYZ secretion (SSMD effect)” value ([2]; basal secretion over 3 hours on day 6) was “fairly moderate decrease in basal secretion”.
`C[N+](C)(C)CCOC(N)=O.[Cl-]` [CCh, carbamyl choline] was tested, and the EC50 ([3]; 3-hour stimulation of 6-day ENR+CD cells, 9-well replicates from 3 bio. donors, read-out: EC50 for LYZ secretion (least-squares dose-response fit)) was 5 µM, the “SSMD effect size as short-term modulator of LYZ secretion” value ([3]; 3-hour stimulation, across all tested doses) was “strong effect” and the “effect on cellular ATP” value [4] was “significant effect on cellular ATP”.
For `CCC(=C/[C@H](C)C/C=C/C(C)=C/[C@@H](C)C(=O)[C@@H](C)[C@H](O)[C@@H](C)C/C(C)=C/C(=O)O)/C=C/[C@@H]1OC(=O)C=C[C@@H]1C` [Leptomycin B], the “Paneth cell representation by flow cytometry” value [5] was “statistically significant increases in Paneth cell representation” and the “LYZ abundance on a per-mass protein normalized basis (western blot)” value [6] was “appreciably increase LYZ abundance”.
